Like-named read-outs stand apart in the source and are kept apart here.
How the values were obtained:
Format in all cases: cell-based
[1] = system: NB4 leukemia cell line; assay: MTS assay (CellTiter96 Aqueous One solution proliferation assay), NB4
Method: (§1) Compounds CPF203, CPF204, CPF194, CPF210, CPF211, CPF212, CPF218 and CPT2001 were each tested in leukaemic cell lines to assess their anti-cancer efficacy. The compounds were tested using the MTS assay reagents from Promega (CellTiter96 Aqueous One solution proliferation assay). The compounds were tested between 10 μM and 0.002 μM in four fold dilutions.
(§2) The cell lines employed are set out in Tables IA and IB below and are NB4, HL60, NB4R2, K562, KG1, and U937 leukemia cell lines.
(§3) Table IA gives the IC50±standard deviation value for each cell line and compound tested and for all the cell lines together, in μM. Included in Table IA below, as a comparative example, is corresponding cell line data for cladribine. Table IB gives the IC50 value for each cell line and compound tested. Included in Table IB below, as a comparative example, is corresponding cell line data for clofarabine.

[2] = system: HL60 leukemia cell line; assay: MTS assay (CellTiter96 Aqueous One solution proliferation assay), HL60; settings: Table IA, read-out: IC50 ± standard deviation
Method: as §1, §2, §3

[3] = system: NB4R2 leukemia cell line; assay: MTS assay (CellTiter96 Aqueous One solution proliferation assay), NB4R2; settings: Table IA, read-out: IC50 ± standard deviation
Method: as §1, §2, §3

[4] = system: KG1 leukemia cell line; assay: MTS assay (CellTiter96 Aqueous One solution proliferation assay), KG1; settings: Table IA, read-out: IC50 ± standard deviation
Method: as §1, §2, §3

[5] = system: U937 leukemia cell line; assay: MTS assay (CellTiter96 Aqueous One solution proliferation assay), U937
Method: as §1, §2, §3

[6] = system: leukaemic cell lines; assay: MTS assay, all the cell lines together; settings: for IC50: All lines, Table IA, read-out: IC50 ± standard deviation, all the cell lines together; for anti-leukaemic potency/activity (in words): data of Table IA
Method: as §1, §2, §3

[7] = system: K562 leukemia cell line; assay: MTS assay (CellTiter96 Aqueous One solution proliferation assay), K562; settings: Table IA, read-out: IC50 ± standard deviation
Method: as §1, §2, §3

[8] = NB4, Table IA, read-out: IC50 ± standard deviation
[9] = U937, Table IA, read-out: IC50 ± standard deviation

Row | Compound | IC50 [1, 8] [nM] | IC50 [2] [nM] | IC50 [3] [nM] | IC50 [4] [nM] | IC50 [5, 9] [nM] | IC50 [6] [nM] | anti-leukaemic potency/activity (in words) [6] | IC50 [7] [nM] | IC50 [1] [nM] | IC50 ([5]; Homo sapiens, U-937) [nM] | anti-cancer activity compared to clofarabine ([6]; data of Table IB (NB4, U937)) | IC50 ([1]; NB4, Table IB, read-out: IC50) [nM] | IC50 ([5]; U937, Table IB, read-out: IC50) [nM]
1 | 2-chloro-2′-deoxyadenosine-5′-[phenyl-(methoxy-L-alaninyl)]-phosphate [CPF203] | 1160 ± 40 | 6230 ± 1750 | 2280 ± 590 | 2230 ± 690 | 1290 ± 910 | 2640 ± 2090 |  |  |  |  |  |  | 
2 | C[C@H](NP(=O)(OC[C@H]1O[C@@H](n2cnc3c(Cl)nc(N)nc32)C[C@@H]1O)Oc1ccccc1)C(=O)OCc1ccccc1 (stereo partly drawn) [CPF194, 2-amino-6-chloropurine-2′-deoxyriboside-5′-[phenyl-(benzoxy-L-alaninyl)]-phosphate] |  |  |  | 2640 ± 180 |  | 2640 ± 180 | anti-leukaemic activity demonstrated |  |  |  |  |  | 
3 | C[C@H](NP(=O)(OC[C@H]1O[C@@H](n2cnc3c(N)nc(Cl)nc32)C[C@@H]1O)Oc1ccccc1)C(=O)OCc1ccccc1 (stereo partly drawn) [CPF204, 2-chloro-2′-deoxyadenosine-5′-[phenyl-(benzoxy-L-alaninyl)]-phosphate] | 230 ± 100 | 1750 ± 890 | 630 ± 40 | 670 ± 200 | 80 ± 10 | 670 ± 700 |  |  |  |  |  |  | 
4 | C[C@H](NP(=O)(OC[C@H]1O[C@@H](n2cnc3c(N)nc(Cl)nc32)C[C@@H]1O)Oc1cccc2ccccc12)C(=O)OCc1ccccc1 (stereo partly drawn) [CPF210, 2-chloro-2′-deoxyadenosine-5′-[1-naphthyl-(benzoxy-L-alaninyl)]-phosphate] | 240 ± 110 | 650 ± 190 | 1030 ± 150 | 1800 ± 720 | 190 ± 90 | 1040 ± 1020 | greater anti-leukaemic potency than the corresponding compound CPF203 | 2360 ± 1570 |  |  |  |  | 
5 | C[C@H](NP(=O)(OC[C@H]1O[C@@H](n2cnc3c(N)nc(Cl)nc32)C[C@@H]1O)Oc1cccc2ccccc12)C(=O)OCc1ccccc1 (stereo partly drawn) [CPF211, 2-chloro-2′-deoxyadenosine-5′-[1-naphthyl-(benzoxy-L-alaninyl)]-phosphate] | 430 ± 40 | 1660 ± 240 | 1180 ± 210 | 2630 ± 1190 | 280 ± 30 | 1410 ± 1090 |  | 2280 ± 1320 |  |  |  |  | 
6 | C[C@H](NP(=O)(OC[C@H]1O[C@@H](n2cnc3c(N)nc(Cl)nc32)C[C@@H]1O)Oc1cccc2ccccc12)C(=O)OCc1ccccc1 (stereo partly drawn) [CPF212, 2-chloro-2′-deoxyadenosine-5′-[1-naphthyl-(benzoxy-L-alaninyl)]-phosphate] | 230 ± 40 | 1780 ± 500 | 1010 ± 390 | 1540 ± 440 | 140 ± 150 | 1750 ± 2340 |  | 5800 ± 3600 |  |  |  |  | 
7 | C[C@H](NP(=O)(OC[C@H]1O[C@@H](n2cnc3c(N)nc(Cl)nc32)C[C@@H]1O)Oc1ccc(Cl)c2ccccc12)C(=O)OCc1ccccc1 (stereo partly drawn) [CPF218, 2-chloro-2′-deoxyadenosine-5′-[4-chloro-1-naphthyl-(benzoxy-L-alaninyl)]-phosphate] | 270 ± 30 | 1750 ± 760 | 1090 ± 40 | 1560 ± 250 | 550 ± 440 | 1600 ± 1470 |  | 4410 ± 950 |  |  |  |  | 
8 | C[C@@H](NP(=O)(OCC1OC(n2cnc3c(N)nc(Cl)nc32)C(F)C1O)Oc1ccccc1)C(=O)OCc1ccccc1 (stereo partly shown) [CPT2001] |  |  |  |  |  |  |  |  | 120 | 80 | enhanced anti-cancer activity compared to clofarabine |  | 
9 | Nc1nc(Cl)nc2c1ncn2[C@H]1C[C@H](O)[C@@H](CO)O1 [Cladribine, reference compound] | 9390 ± 4250 | 10300 ± 3460 | 7810 ± 1640 | 5480 ± 1860 | 2080 ± 2750 | 7210 ± 3690 |  |  |  |  |  |  | 
10 | Nc1nc(Cl)nc2c1ncn2[C@@H]1O[C@H](CO)[C@@H](O)[C@@H]1F [Clofarabine, reference compound] |  |  |  |  |  |  |  |  |  |  |  | 200 | 260
